According to ChEMBL document CHEMBL1143492, “Design, synthesis, and bioavailability evaluation of coumarin-based prodrug of meptazinol” (Bioorg Med Chem Lett, 2005):

Test: Area under curve was determined after intravenous administration (29.7 umol/kg) in rat
Type: ADME
Conditions: in vivo

`CCC1(c2cccc(O)c2)CCCCN(C)C1` (stereo unspecified) [MEPTAZINOL] gave an AUC of 1990 ng·h/mL.
